Where two headings read alike, the source gives them in different places.
Tests used:
Alk2/ACVRR1 [1] = target: T1, Alk2/ACVRR1 (Homo sapiens, UniProt Q04771); conditions: read-out: IC50 Alk2/ACVRR1; kinase activity; ATP 10 Micromolar; 10-point, duplicate
T1 sequence (Q04771 21-509): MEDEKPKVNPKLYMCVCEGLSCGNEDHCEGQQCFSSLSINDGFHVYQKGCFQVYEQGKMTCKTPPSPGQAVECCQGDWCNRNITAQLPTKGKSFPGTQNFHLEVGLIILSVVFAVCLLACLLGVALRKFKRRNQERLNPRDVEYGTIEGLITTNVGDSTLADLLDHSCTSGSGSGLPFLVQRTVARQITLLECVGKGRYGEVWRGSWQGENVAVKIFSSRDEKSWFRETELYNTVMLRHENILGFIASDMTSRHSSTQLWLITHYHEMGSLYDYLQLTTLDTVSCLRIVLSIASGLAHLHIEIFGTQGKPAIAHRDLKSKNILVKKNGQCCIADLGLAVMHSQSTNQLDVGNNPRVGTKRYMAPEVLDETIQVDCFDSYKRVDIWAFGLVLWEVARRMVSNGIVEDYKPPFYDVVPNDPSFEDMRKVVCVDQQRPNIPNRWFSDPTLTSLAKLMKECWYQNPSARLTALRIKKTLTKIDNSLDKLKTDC
Method: (§1) This was a 10-point assay starting from 100 μM to 100 nM performed in duplicate. The ATP concentration was 10 Micromolar.

Alk3/BMPR1A = Alk3/BMPR1A (Homo sapiens, UniProt P36894); conditions: read-out: IC50 Alk3/BMPR1A; kinase activity; ATP 10 Micromolar; 10-point, duplicate
Sequence of Alk3/BMPR1A (P36894 24-532): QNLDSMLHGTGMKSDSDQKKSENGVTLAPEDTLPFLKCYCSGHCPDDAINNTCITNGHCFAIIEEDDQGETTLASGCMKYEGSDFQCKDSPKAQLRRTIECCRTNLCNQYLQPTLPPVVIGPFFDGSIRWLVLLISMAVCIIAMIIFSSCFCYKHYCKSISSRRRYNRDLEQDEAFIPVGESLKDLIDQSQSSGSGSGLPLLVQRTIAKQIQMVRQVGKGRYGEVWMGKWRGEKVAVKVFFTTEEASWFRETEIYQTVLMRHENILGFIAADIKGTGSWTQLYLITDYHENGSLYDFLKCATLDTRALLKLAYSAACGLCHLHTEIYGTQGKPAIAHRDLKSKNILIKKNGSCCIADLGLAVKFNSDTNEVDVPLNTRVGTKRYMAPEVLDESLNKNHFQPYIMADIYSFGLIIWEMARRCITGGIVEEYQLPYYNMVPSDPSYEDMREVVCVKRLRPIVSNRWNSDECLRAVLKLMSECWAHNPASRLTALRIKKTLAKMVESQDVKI
Method: as §1

Alk6 = Alk6 (Homo sapiens, UniProt O00238); conditions: read-out: IC50 Alk6/BMPRII; kinase activity; ATP 10 Micromolar; 10-point, duplicate
Sequence of Alk6 (O00238 149-502 limits assumed): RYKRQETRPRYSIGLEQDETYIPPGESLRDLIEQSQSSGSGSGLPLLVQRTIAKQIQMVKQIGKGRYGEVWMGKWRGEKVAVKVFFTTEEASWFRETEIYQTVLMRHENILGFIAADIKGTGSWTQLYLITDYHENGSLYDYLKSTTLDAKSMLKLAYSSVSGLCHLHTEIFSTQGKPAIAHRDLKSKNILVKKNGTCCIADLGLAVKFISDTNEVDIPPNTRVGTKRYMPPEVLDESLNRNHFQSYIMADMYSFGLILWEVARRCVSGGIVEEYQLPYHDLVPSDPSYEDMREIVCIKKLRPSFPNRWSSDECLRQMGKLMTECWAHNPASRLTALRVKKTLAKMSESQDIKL
Method: as §1

BMPRII = target: T2, BMPRII (Homo sapiens, UniProt Q13873); assay: In vitro kinase IC50; format: biochemical; conditions: kinase activity; ATP 10 Micromolar; 10-point, duplicate
T2 construct: purchased Reaction Biology Corporation (Malvern, PA)
T2 sequence (Q13873 27-1038): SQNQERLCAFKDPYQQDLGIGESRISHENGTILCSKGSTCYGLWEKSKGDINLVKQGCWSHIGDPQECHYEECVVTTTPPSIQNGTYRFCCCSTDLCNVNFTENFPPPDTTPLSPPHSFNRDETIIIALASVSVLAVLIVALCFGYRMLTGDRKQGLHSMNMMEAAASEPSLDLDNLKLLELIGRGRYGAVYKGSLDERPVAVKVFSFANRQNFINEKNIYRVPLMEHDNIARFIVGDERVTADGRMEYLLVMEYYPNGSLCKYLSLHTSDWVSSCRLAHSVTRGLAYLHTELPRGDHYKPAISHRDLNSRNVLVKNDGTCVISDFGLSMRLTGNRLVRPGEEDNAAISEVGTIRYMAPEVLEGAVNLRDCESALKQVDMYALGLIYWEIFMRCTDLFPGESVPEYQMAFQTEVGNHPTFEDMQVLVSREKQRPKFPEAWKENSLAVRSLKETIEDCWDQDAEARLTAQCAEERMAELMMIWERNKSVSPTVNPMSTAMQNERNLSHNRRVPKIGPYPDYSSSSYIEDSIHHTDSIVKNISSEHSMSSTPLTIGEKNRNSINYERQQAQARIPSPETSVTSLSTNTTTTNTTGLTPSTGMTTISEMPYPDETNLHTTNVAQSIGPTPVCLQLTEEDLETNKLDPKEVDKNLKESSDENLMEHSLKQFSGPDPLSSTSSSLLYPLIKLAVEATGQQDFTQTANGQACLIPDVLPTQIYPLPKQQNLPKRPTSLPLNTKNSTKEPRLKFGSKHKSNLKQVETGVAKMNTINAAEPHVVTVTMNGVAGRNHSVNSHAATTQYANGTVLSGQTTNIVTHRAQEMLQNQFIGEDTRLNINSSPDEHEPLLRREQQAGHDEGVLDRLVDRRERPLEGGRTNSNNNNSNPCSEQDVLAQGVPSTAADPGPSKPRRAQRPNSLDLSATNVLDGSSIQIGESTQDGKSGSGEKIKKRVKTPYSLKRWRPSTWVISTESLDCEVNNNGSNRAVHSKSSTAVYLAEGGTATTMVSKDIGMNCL
From the text: The ATP concentration was 10 Micromolar.

[2] = Plasma protein binding by equilibrium dialysis; format: in vitro ADME; conditions: human plasma
H1299 tumor xenografts = assay: Western blot analysis of tumor xenografts; format: in vivo, nude mice
Method: Total cellular protein was prepared using RIPA buffer containing a protease inhibitor cocktail and protein concentration was measured using the BCA assay as described. In brief, protein was analyzed by SDS-PAGE, transferred to nitrocellulose (Schleicher and Schuell, Keene, NH). After blocking, the blots were incubated overnight at 4 °C with the appropriate primary antibody in Tris-buffered saline with 1 % Tween (TBST) and 5 % BSA. Secondary antibodies were applied for 1 h at room temperature. Specific proteins were detected using the enhanced chemiluminescence system (Amersham, Arlington Heights, IL). […]
H1299 cells were stably transfected with the Id1 promoter-luciferase reporter. […] After approximately 12 days the mice were anesthetized and the luciferase activity measured. […] Mice were injected IP with 150 mg/kg luciferin-D and after a 15-min uptake period tumors were imaged with IVIS Spectrum and analyzed using Living Image software. […]

A549 cells = assay: Cell counts (live cells, trypan blue); format: cell-based; conditions: compound alone, 7 days
Method: (§2) Cells were plated into 6 well plates at 10^5 cells per well and treated with 1 μM DMSO or antagonist for 7 days. The cells were detached with trypsin, stained with trypan blue, and the number of live cells counted using a hemocytometer.

H1299 cells = assay: Cell counts (live cells, trypan blue); format: cell-based
Method: as §2

Alk2/ACVRR1 [3] = target: T1, Alk2/ACVRR1; design: purchased Reaction Biology Corporation (Malvern, PA); conditions: reported; read-out: IC50 for the BMP type I receptor Alk2; cited from earlier work

c1ccc2c(-c3cnn4cc(-c5ccc(OCCN6CCOCC6)cc5)cnc34)ccnc2c1 [DMH2]
IC50 (Alk2/ACVRR1 [1]): 23 nM
IC50 (Alk3/BMPR1A): 92 nM
IC50 (Alk6): 43 nM
IC50 (BMPRII): 7950 nM
percent binding plasma proteins [2]: 98.6 % +/−0.7
increase in the expression of Id1 protein compared to controls (H1299 tumor xenografts; 9 days, twice-daily injection, normalized to GAPDH): 103%
phosphorylated TAK1 and Smad2 in tumor xenografts (H1299 tumor xenografts; treated for 24 h and 9 days): increase
growth (cell counts) (A549 cells): growth suppression
growth suppression compared to DMH1 and LDN (H1299 cells): significantly greater growth suppression
growth (cell counts) (H1299 cells; compound alone, 7 days): significant growth suppression
IC50 (Alk2/ACVRR1 [3]): 42.8 nM
